Experimental data published in patent publication US9050264B2, “Cellulose capsules and methods for making them” (University of Iowa Research Foundation, priority 2009, dated 2015).
Structures can show the parent of a compound that is named as a salt.

Assays:
Assay type in all cases: physicochemical
[1] = Release of KCl from cellulose capsules in unstirred aqueous urea solutions (potassium ion selective electrode); conditions: cellulose capsule (shell 0.07-0.10 mm), KCl 500 mg, unstirred 200 mL, 37 C
Method: Cellulose capsule shells (shell thickness 0.07-0.10 mm), prepared according to Example 2, were filled with KCl (500 mg) and subjected to the release study in the unstirred dissolution medium (200 mL) containing 0.0, 1.5, 3.0, 5.5, or 8.0 M urea at 37±0.5° C. using a Hansen Research USP II basket apparatus (Hansen Research Corp., Chatsworth, Calif.). The amount of KCl released was analyzed using a potassium ion selective electrode connected to a pH meter (Orion model 420, Fisher Scientific, Inc., Pittsburgh, Pa.).

[2] = Dissolution study of acetaminophen release from cellulose capsules in water (USP II basket, HPLC); conditions: for release rate: acetaminophen 50 mg + lactose 150 mg, water 900 mL, 37 C, 100 r.p.m.
Method: Cellulose capsule shells of three different shell thicknesses (0.05, 0.06 and 0.07 mm) were prepared from the methylolcellulose solution (cellulose content 4.4%, w/w) according to Example 2. They were filled with a homogeneously mixed powder blend of acetaminophen (50 mg) and lactose (150 mg). The dissolution study was performed in water (900 mL) at 37±0.5° C. and 100±2 r.p.m. using a Hansen Research USP II basket apparatus (Hansen Research Corp., Chatsworth, Calif.). The amount of drug released was determined by high performance liquid chromatography (HPLC) using an absolute calibration method and a fully automated Shimadzu LC-6A high performance liquid chromatograph, equipped with a C18 analytical column (Supelco—Sigma Aldrich, Bellefonte, Pa.). The drug was eluted with a 1:3 methanol:water mixture at a flow rate of 0.5 mL/min and detected at a wavelength of 243 nm. The release of acetaminophen increased linearly with time (see FIG. 4A).
Cellulose capsule shells (shell thickness 0.07-0.10 mm) prepared according to Example 2 were filled with 50, 100 and 200 mg of acetaminophen. The release studies were carried out in purified water (900 mL) at 37±0.5° C. and 100±2 r.p.m. The amount of acetaminophen released over time was determined by HPLC using conditions described above.
Cellulose capsule shells (shell thickness 0.07-0.10 mm), prepared according to Example 2, were filled with a homogeneously mixed powder blend of acetaminophen (100 mg) and 15, 50, 100, 150, or 200 mg of polyethylene glycol (PEG) 8000 (corresponding to the percent weight ratio of 87:13, 67:33, 50:50, 40:60, or 33:67, respectively, for the total powder fill in the capsule). The release studies were performed in purified water (900 mL) at 37±0.5° C. and 100±2 r.p.m. using the Hansen Research USP II basket apparatus (Hansen Research Corp., Chatsworth, Calif.). The amount of acetaminophen released was determined by HPLC as described above. […] Above 60% w/w PEG 8000 in the formulation, there was no change in the release rate compared to the rate at 50% PEG in the mixture.
Cellulose capsule shells (shell thickness 0.07-0.1 mm) prepared according to Example 2 were filled with acetaminophen (100 mg) and 50, 100 and 200 mg potassium chloride (KCl) (corresponding to the weight ratio of 33:67, 50:50 or 67:33, respectively, for the total powder fill in the capsule). The amounts of acetaminophen released at different times were determined by HPLC, following the procedure described above.

[3] = Dissolution study of cellulose:Eudragit S100 capsule shells in pH 3.0 and pH 7.4 buffers (USP II basket, HPLC); conditions: Cellulose:Eudragit (90:10%, w/w) capsule shell ~0.08 mm, acetaminophen 50 mg + anhydrous lactose 150 mg
Method: Cellulose:Eudragit (90:10%, w/w) capsule shells (shell thickness˜0.08 mm) prepared according to Example 2 were filled with a homogeneously mixed powder blend of acetaminophen (50 mg) and anhydrous lactose (150 mg) and subjected to dissolution study first in pH 3.0 phthalate buffer (900 mL) for 3 h at 37±0.5° C. and 100±2 r.p.m followed by in pH 7.4 phosphate buffer (900 mL) for 5 h at 37±0.5° C. and 100±2 r.p.m. using a Hansen Research USP II basket apparatus (Hansen Research Corp., Chatsworth, Calif.). The amount of drug released was determined by HPLC according to the method described above. […] The higher steady-state release rate observed for acetaminophen at pH 7.4 is attributed to the dissolution of Eudragit, causing the capsule shell to become more porous.
Cellulose, cellulose-Eudragit (90:10) and cellulose:Eudragit (90:10%, w/w) capsule shells (shell thickness˜0.08 mm) were prepared according to Example 2. The dissolution test was carried out in pH 7.4 phosphate buffer (900 mL) for 5 h at 37±0.5° C. and 100±2 r.p.m. using a Hansen Research USP II basket apparatus (Hansen Research Corp., Chatsworth, Calif.). The amount of drug released was determined by HPLC according to the method described above. FIG. 12 compares the release results from the three capsule systems. The steady-state release rates calculated were 1.8, 3.1 and 4.6 mg/h, respectively.

[4] = Release of diphenhydramine hydrochloride from cellulose capsules in water (USP II basket, HPLC); conditions: cellulose capsule, water 900 mL
Method: Cellulose capsule shells (shell thickness 0.07-1.0 mm), prepared according to Example 2, were filled with diphenhydramine hydrochloride and lactose (400 mg) mixed in different weight-by-weight ratios (50:50, 25:75, 12.5:87.5, 6.25:93.75 or 3.75:96.25 weight ratios of diphenhydramine hydrochloride and lactose, respectively). The release study was performed in water (900 mL) at 37±0.5° C. and 100±2 r.p.m. using a Hansen Research USP II basket apparatus (Hansen Research Corp., Chatsworth, Calif.). The amount of drug released was determined by HPLC using a fully automated Shimadzu LC-10A high performance liquid chromatograph, equipped with a C18 analytical column (Supelco). The drug was eluted with a 1:4 (v/v) mixture of methanol:water (containing 1% triethylamine and 2% glacial acetic acid) at a flow rate of 0.2 mL/min and detected at a wavelength of 256 nm. […] The steady state release rates mentioned above depended linearly with the calculated osmotic pressure developed inside the capsule shell.

[Cl-].[K+] [KCl, potassium chloride]
steady state release rate ([1]; 0.0 M urea): 142.8 mg/h | steady state release rate ([1]; 1.5 M urea): 115.8 mg/h | steady state release rate ([1]; 3.0 M urea): 100.2 mg/h | steady state release rate ([1]; 5.5 M urea): 73.8 mg/h | steady state release rate ([1]; 8.0 M urea): 46.2 mg/h

CC(=O)Nc1ccc(O)cc1 [acetaminophen]
steady-state release rate ([2]; cellulose capsule (shell 0.07-0.10 mm) filled with 50 mg acetaminophen, purified water): 3.05 mg/h | steady-state release rate ([2]; cellulose capsule (shell 0.07-0.10 mm) filled with 100 mg acetaminophen, purified water): 3.43 mg/h | steady-state release rate ([2]; cellulose capsule (shell 0.07-0.10 mm) filled with 200 mg acetaminophen, purified water): 3.15 mg/h | steady-state release rate ([2]; cellulose capsule (shell 0.07-0.10 mm), 33:67 (% w/w) acetaminophen:PEG 8000 (100 mg + 200 mg), purified water): 7.38 mg/h | steady-state release rate ([2]; cellulose capsule (shell 0.07-0.1 mm), 33:67 acetaminophen:KCl mixture): 9.94 mg/h | steady-state release rate ([2]; cellulose capsule (shell 0.07-0.10 mm), 40:60 (% w/w) acetaminophen:PEG 8000 (100 mg + 150 mg), purified water): 7.17 mg/h | steady-state release rate ([2]; cellulose capsule (shell 0.07-0.10 mm), 50:50 (% w/w) acetaminophen:PEG 8000 (100 mg + 100 mg), purified water): 6.95 mg/h | steady-state release rate ([2]; cellulose capsule (shell 0.07-0.1 mm), 50:50 acetaminophen:KCl mixture): 10.14 mg/h | steady-state release rate ([2]; cellulose capsule (shell 0.07-0.10 mm), 67:33 (% w/w) acetaminophen:PEG 8000 (100 mg + 50 mg), purified water): 6.62 mg/h | steady-state release rate ([2]; cellulose capsule (shell 0.07-0.1 mm), 67:33 acetaminophen:KCl mixture): 11.41 mg/h | steady-state release rate ([2]; cellulose capsule (shell 0.07-0.10 mm), 87:13 (% w/w) acetaminophen:PEG 8000 (100 mg + 15 mg), purified water): 5.92 mg/h | release rate ([2]; cellulose capsule shell thickness 0.05 mm): 5.25 mg/h | release rate ([2]; cellulose capsule shell thickness 0.06 mm): 4.30 mg/h | release rate ([2]; cellulose capsule shell thickness 0.07 mm): 3.06 mg/h | steady-state release rate ([3]; pH 3.0 phthalate buffer, 3 h): 2.68 mg/h | steady-state release rate ([3]; pH 7.4 phosphate buffer, 5 h): 4.76 mg/h

CN(C)CCOC(c1ccccc1)c1ccccc1 [diphenhydramine hydrochloride]
steady-state release rate ([4]; 3.75:96.25 diphenhydramine hydrochloride:lactose core powder mixture (400 mg)): 3.92 mg/h | steady-state release rate ([4]; 6.25:93.75 diphenhydramine hydrochloride:lactose core powder mixture (400 mg)): 7.58 mg/h | steady-state release rate ([4]; 12.5:87.5 diphenhydramine hydrochloride:lactose core powder mixture (400 mg)): 12.70 mg/h | steady-state release rate ([4]; 25:75 diphenhydramine hydrochloride:lactose core powder mixture (400 mg)): 34.17 mg/h | steady-state release rate ([4]; 50:50 diphenhydramine hydrochloride:lactose core powder mixture (400 mg)): 67.96 mg/h
